# In patent US11149013B2, “Crystal form of urate transporter 1 inhibitor and preparation method and use thereof” (Tianjin Institute of Pharmaceutical Research Co., Ltd., priority 2018, dated 2021):
# Columns and labels:
# Format in all cases: physicochemical
# [1] = Influencing factor test: stability to light; conditions: illumination 5000 Lx·hr, open weighing bottle
# Protocol: (§1) The HPLC conditions for the determination of the crystal form A of the compound TY706 and its raw material in the present invention were as follows: chromatographic column: C18, 5 μu, Φ4.6×150 mm, Waters Atlantis T3; mobile phase A: acetonitrile-methanol=9:1, mobile phase B: 10 mM diammonium hydrogen phosphate (pH was adjusted to 4.30±0.03 with phosphoric acid), gradient elution (Table 2); detection wavelength: 225 nm; column temperature: 35° C.; flow rate: 1.0 mL/min; sample concentration: 0.3 mg/mL; injection volume: 15 μL; solvent for dissolving: phosphate buffer (pH 7.8-8.0; prepared by dissolving 5.59 g of dipotassium hydrogen phosphate and 0.41 g of potassium dihydrogen phosphate by adding water to a volume of 1000 mL).
# (§2) The sample of the crystal form A of TY706 prepared in Example 1 and the raw material for the preparation of the crystal form A were simultaneously subjected to influencing factor tests, and they were respectively placed under the conditions of illumination (5000 Lx·hr, with the weighing bottle being placed open), high heat (60° C., with the weighing bottle being placed open), and high humidity (92.5% RH, with the weighing bottle being placed open) for 14 days, and the appearance and the number and total amount of impurities (determined by HPLC) were compared with those measured on day 0, and the results are shown in Table 5-7.
# [2] = Influencing factor test: stability to high heat; conditions: high heat 60° C., open weighing bottle
# Protocol: as §1, §2
# [3] = Influencing factor test: stability to high humidity; conditions: high humidity 92.5% RH, open weighing bottle
# Protocol: as §1, §2
Compound,Appearance ([1]; day 0),"Number of impurities ([1]; day 0, HPLC)","Total amount of impurities ([1]; day 0, HPLC)",Appearance ([1]; day 7),"Number of impurities ([1]; day 7, HPLC)","Total amount of impurities ([1]; day 7, HPLC)",Appearance ([1]; day 14),"Number of impurities ([1]; day 14, HPLC)","Total amount of impurities ([1]; day 14, HPLC)",Appearance ([2]; day 0),"Number of impurities ([2]; day 0, HPLC)","Total amount of impurities ([2]; day 0, HPLC)",Appearance ([2]; day 7),"Number of impurities ([2]; day 7, HPLC)","Total amount of impurities ([2]; day 7, HPLC)",Appearance ([2]; day 14),"Number of impurities ([2]; day 14, HPLC)","Total amount of impurities ([2]; day 14, HPLC)",Appearance ([3]; day 0),"Number of impurities ([3]; day 0, HPLC)",further results
O=C(O)CSc1nnc(Br)n1Cc1ccc(Br)c2ccccc12 [Crystal form A of TY706],White solid,4,0.24%,White solid,6,0.28%,White solid,7,0.41%,White solid,4,0.24%,White solid,4,0.25%,White solid,5,0.26%,White solid,4,"Total amount of impurities ([3]; day 0, HPLC): 0.24%; Appearance ([3]; day 7): White solid; Number of impurities ([3]; day 7, HPLC): 4; Total amount of impurities ([3]; day 7, HPLC): 0.24%; Appearance ([3]; day 14): White solid; Number of impurities ([3]; day 14, HPLC): 4; Total amount of impurities ([3]; day 14, HPLC): 0.25%"
O=C(O)CSc1nnc(Br)n1Cc1ccc(Br)c2ccccc12 [TY706 raw material],White solid,11,0.69%,White solid,13,1.13%,Light yellow,25,2.68%,White solid,11,0.69%,White solid,12,0.78%,White solid,15,1.19%,White solid,11,"Total amount of impurities ([3]; day 0, HPLC): 0.69%; Appearance ([3]; day 7): White solid; Number of impurities ([3]; day 7, HPLC): 12; Total amount of impurities ([3]; day 7, HPLC): 0.72%; Appearance ([3]; day 14): White solid; Number of impurities ([3]; day 14, HPLC): 14; Total amount of impurities ([3]; day 14, HPLC): 0.84%"
